In patent US9822157B2 (priority 2013, dated 2017):
pEC50: −log10 of the molar value. Read-outs that look alike come from different tables or passages of the source. * marks the point of attachment. Palmitoyl = CCCCCCCCCCCCCCCC(=O)*

Legend:
human ferroportin = biological target: T1, human ferroportin (Homo sapiens, UniProt Q9NP59); type: cell-based; details: for % Activity At 1 uM: at 1 uM peptide, monomers and disulphide-linked dimers
T1 sequence (Q9NP59 1-571): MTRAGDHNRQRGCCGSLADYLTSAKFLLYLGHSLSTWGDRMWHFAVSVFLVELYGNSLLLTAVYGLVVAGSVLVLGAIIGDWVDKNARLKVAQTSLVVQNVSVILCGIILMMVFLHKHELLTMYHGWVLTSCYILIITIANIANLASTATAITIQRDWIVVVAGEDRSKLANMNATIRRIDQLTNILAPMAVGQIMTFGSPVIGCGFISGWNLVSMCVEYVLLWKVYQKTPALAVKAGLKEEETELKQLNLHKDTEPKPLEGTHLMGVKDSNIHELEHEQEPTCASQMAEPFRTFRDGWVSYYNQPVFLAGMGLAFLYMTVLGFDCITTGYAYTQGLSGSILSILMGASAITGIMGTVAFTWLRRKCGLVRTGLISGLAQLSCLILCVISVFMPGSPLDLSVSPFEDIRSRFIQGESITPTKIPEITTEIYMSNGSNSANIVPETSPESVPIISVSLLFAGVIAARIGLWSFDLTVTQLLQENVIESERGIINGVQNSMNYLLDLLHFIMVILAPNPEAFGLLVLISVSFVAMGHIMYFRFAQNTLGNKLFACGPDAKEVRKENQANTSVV
From the text: The cDNA encoding the human ferroportin (SLC40A1) was cloned from a cDNA clone from Origene (NM_014585). The DNA encoding the ferroportin was amplified by PCR using primers also encoding terminal restriction sites for subcloning, but without the termination codon. The ferroportin receptor was subcloned into a mammalian GFP expression vector containing a neomycin (G418) resistance marker in such that the reading frame of the ferroportin was fused in frame with the GFP protein. The fidelity of the DNA encoding the protein was confirmed by DNA sequencing. HEK293 cells were used for transfection of the ferroportin-GFP receptor expression plasmid. The cells were grown according to standard protocol in growth medium and transfected with the plasmids using Lipofectamine (manufacturer's protocol, Invitrogen). […] The cells were propagated and frozen in aliquots.
A retro inverse peptide is a peptide with a reversed sequence in all D amino acids. […] The EC50 of these reference compounds for ferroportin degradation was determined according to the activity assay described above.

serum iron = assay: In vivo serum iron reduction in mice; parameters: species or system mice (C57-BL6); details: tested in rats or in mice
Protocol: Instead of rats, mice (C57-BL6) were tested.
A similar experiment was performed with lower doses to assess the dose response of these compounds for inducing serum iron reduction. Methods were as described above in this Example, except for the following parameters: n=4 mice/group, however n=8 for the vehicle, as two groups were pooled. Mice were administered test compounds at two separate dosages (300 nmol/kg or 1000 nmol/kg), via subcutaneous injection. Serum iron levels were assessed as in Example 8 two hours after peptide or vehicle injection. […] Moreover, it was clear that several of the compounds were able to induce maximum effects at dosages as low as 300 nmol/kg.
The route of peptide administration was via subcutaneous injection, unless otherwise indicated as having been via intraperitoneal injection (this is noted on the table by “i.p.” in parentheses following the “yes” or “no” determination).
The peptides were also tested for other pharmacokinetic/pharmacodynamic (PK/PD) parameters using methods commonly know by the skilled artisan. These parameters included determinations regarding stability (hours stable in plasma from the indicated human or rat subject), half-life in mice, and in vitro activity (EC50), tested as described in Example 2.

[1] = Hepcidin analog peptides, read-out: Potency EC50
[2] = read-out: EC50 (nM) (n = 3), in vitro activity as in Example 2, peptide monomers and dimers dimerized through a single disulphide linkage, n = 3
[3] = cysteine replacement scan of Mini-Hepcidin derivatives
[4] = read-out: EC50 (nM) (n > 3), alanine scan of Compound 18

## H-DTHFPCISFGPRSKGWVCM-NH2 (cysteine pairing not given here) [Compound 135]
Human ferroportin; [1]
  pEC50: 6.26

## H-DTHFPCIVF-NH2 [Compound 307]
Human ferroportin
  % Activity At 1 uM: 75%
Human ferroportin; [2]
  EC50: > 300 nM

## H-DTHFPCIYFGPRSKGWVCK-NH2 (cysteine pairing not given here) [Compound 85]
Human ferroportin; [1]
  pEC50: 6.15

## H-DTHFPCRRFGPRSKGWVC-NH2 (cysteine pairing not given here) [Compound 70]
Human ferroportin; Hepcidin analog peptides
  Potency EC50 (nM): Inactive

## H-DTHFPIAICI-NH2 [Compound 274]
Human ferroportin; Hepcidin analog peptides
  Potency EC50 (nM): Inactive
Human ferroportin; [3]
  EC50 (nM) (n > 3): Not active

## H-DTHFPIAIFAAGICI-NH2 [Compound 269]
Human ferroportin; Hepcidin analog peptides
  Potency EC50 (nM): Inactive
Human ferroportin; [3]
  EC50 (nM) (n > 3): Not active

## H-DTHFPIAIFAAICI-NH2 [Compound 270]
Human ferroportin; Hepcidin analog peptides
  Potency EC50 (nM): Inactive
Human ferroportin; [3]
  EC50 (nM) (n > 3): Not active

## H-DTHFPIAIFAICI-NH2 [Compound 271]
Human ferroportin; Hepcidin analog peptides
  Potency EC50 (nM): Inactive
Human ferroportin; [3]
  EC50 (nM) (n > 3): Not active

## H-DTHFPIAIFGPRSKGWVAM-NH2 [Compound 69]
Human ferroportin; Hepcidin analog peptides
  Potency EC50 (nM): Inactive
Human ferroportin; alanine scan of Compound 18
  EC50 (nM) (n > 3): Inactive

## H-DTHFPIAIFICI-NH2 [Compound 272]
Human ferroportin; Hepcidin analog peptides
  Potency EC50 (nM): Inactive
Human ferroportin; [3]
  EC50 (nM) (n > 3): Not active

## H-DTHFPIAIICI-NH2 [Compound 273]
Human ferroportin; Hepcidin analog peptides
  Potency EC50 (nM): Inactive
Human ferroportin; [3]
  EC50 (nM) (n > 3): Not active

## H-DTHFPICAFGPRSKGWVCM-NH2 (cysteine pairing not given here) [Compound 68]
Human ferroportin; [1]
  pEC50: < 5.00
Human ferroportin; read-out: EC50 (n > 3), alanine scan of Compound 18
  pEC50: < 5.00

## H-DTHFPICIAGPRSKGWVCM-NH2 (cysteine pairing not given here) [Compound 67]
Human ferroportin; [1]
  pEC50: 5.61
Human ferroportin; [4]
  EC50: 2470 nM

## H-DTHFPICIFAPRSKGWVCM-NH2 (cysteine pairing not given here) [Compound 22]
Human ferroportin; [1]
  pEC50: 5.03
Human ferroportin; [4]
  EC50: 9430 nM

## H-DTHFPICIFGPASKGWVCM-NH2 (cysteine pairing not given here) [Compound 34]
Human ferroportin; [1]
  pEC50: 6.69
Human ferroportin; [4]
  EC50: 206 nM

## H-DTHFPICIFGPHRSKGWVCM-NH2 (cysteine pairing not given here) [Compound 27]
Human ferroportin; [1]
  pEC50: 6.83

## H-DTHFPICIFGPRAKGWVCM-NH2 (cysteine pairing not given here) [Compound 16]
Human ferroportin; [1]
  pEC50: 7.06
Human ferroportin; [4]
  EC50: 88 nM

## H-DTHFPICIFGPRAKGWVCM-NH2 (cysteine pairing not given here) [Compound 28]
Human ferroportin; [1]
  pEC50: 7.06

## H-DTHFPICIFGPRSKAWVCM-NH2 (cysteine pairing not given here) [Compound 31]
Human ferroportin; [1]
  pEC50: 6.76
Human ferroportin; [4]
  EC50: 175 nM

## H-DTHFPICIFGPRSKGAVCM-NH2 (cysteine pairing not given here) [Compound 66]
Human ferroportin; [1]
  pEC50: 6.28
Human ferroportin; [4]
  EC50: 520 nM

## H-DTHFPIICI-NH2 [Compound 275]
Human ferroportin; Hepcidin analog peptides
  Potency EC50 (nM): Inactive
Human ferroportin; [3]
  EC50 (nM) (n > 3): Not active

## H-DTHFRCIIFGPRSKGWVCK-NH2 (cysteine pairing not given here) [Compound 125]
Human ferroportin; Hepcidin analog peptides
  Potency EC50 (nM): Inactive

## H-DTHICIAIF-NH2 [Compound 276]
Human ferroportin; Hepcidin analog peptides
  Potency EC50 (nM): Inactive
Human ferroportin; [3]
  EC50 (nM) (n > 3): Not active

## H-DTKFPCIIF-NH2 [Compound 302]
Human ferroportin
  % Activity At 1 uM: 60%
Human ferroportin; read-out: EC50 (n = 3), cells printed in μM, in vitro activity as in Example 2, peptide monomers and dimers dimerized through a single disulphide linkage, n = 3
  EC50: > 1000 nM

## H-EDTHFPCIIFGPRSKGWVCK-NH2 (cysteine pairing not given here) [Compound 103]
Human ferroportin; [1]
  pEC50: < 6.00

## H-EDTHFPCIIFGPRSKGWVCM-NH2 (cysteine pairing not given here) [Compound 137]
Human ferroportin; [1]
  pEC50: 6.06

## H-HFPCIIFGPRSKGWVCK-NH2 (cysteine pairing not given here) [Compound 99]
Human ferroportin; Hepcidin analog peptides
  Potency EC50 (nM): Inactive

## H-HFPCIIFGPRSKGWVCM-NH2 (cysteine pairing not given here) [Compound 133]
Human ferroportin; [1]
  pEC50: < 6.00

## H-THFPCIIFGPRSKGWVCK-NH2 (cysteine pairing not given here) [Compound 97]
Human ferroportin; Hepcidin analog peptides
  Potency EC50 (nM): Inactive

## H-THFPCIIFGPRSKGWVCM-NH2 (cysteine pairing not given here) [Compound 132]
Human ferroportin; [1]
  pEC50: < 6.00

## H-VDTHFPCIKFGPRSKGWVCK-NH2 (cysteine pairing not given here) [Compound 164]
Human ferroportin; [1]
  pEC50: 6.84

## Hy-DTHF-(D)--Ala-CIIF-NH2 [Compound 281]
Human ferroportin; Hepcidin analog peptides
  Potency EC50 (nM): Inactive
Human ferroportin; alanine scan of Compound 1
  EC50 (nM) (n > 3): Not active

## Hy-DTHF-[Sarc]-CIIFGPRSKGWVCK-NH2 [Compound 127]
Human ferroportin; Hepcidin analog peptides
  Potency EC50 (nM): Inactive

## Hy-DTHF-[β-Ala]-CIIFGPRSKGWVCK-NH2 [Compound 129]
Human ferroportin; Hepcidin analog peptides
  Potency EC50 (nM): Inactive

## Hy-DTHFPCIIF-NH2 [Compound 1]
Human ferroportin
  % Activity At 1 uM: 92%

## Hy-DTHFPIC(1)IFC(2)C(3)GC(2)C(4)HRSKC(3)GMC(4)C(1)KT-OH [Hepcidin, reference compound]
Serum iron; 300 nmol/kg
  In Vivo Activity (s.c.) 300 nmol/kg: Yes
Serum iron; 1000 nmol/kg
  In Vivo Activity (s.c.) 1000 nmol/kg: Yes

## Hy-ETHFPCIIF-NH2 [Compound 300]
Human ferroportin
  % Activity At 1 uM: 77%
Human ferroportin; [2]
  EC50: > 300 nM

## Hy-LTHFPCIIF-NH2 [Compound 299]
Human ferroportin
  % Activity At 1 uM: 64%
Human ferroportin; [2]
  EC50: > 300 nM

## Isovaleric acid-DTHAPCIKFEPRSKGWECK-NH2 [Compound 243]
Human ferroportin; Hepcidin analog peptides
  Potency EC50 (nM): Inactive

## Isovaleric acid-DTHFPAIIF-NH2 [Compound 289]
Human ferroportin; Hepcidin analog peptides
  Potency EC50 (nM): Inactive

## Isovaleric acid-DTHFPCIEFGPRSKGWVCK-NH2 [Compound 15]
Serum iron; 1000 nmol/kg
  In Vivo Activity (s.c.) 1000 nmol/kg: Minor

## Isovaleric acid-DTHFPCIIF-NH2 [Compound 288]
Human ferroportin
  % Activity At 1 uM: 100%

## Isovaleric acid-DTHFPCIIFEPRSKGWVCK-NH2 [Compound 105]
Serum iron; 300 nmol/kg
  In Vivo Activity (s.c.) 300 nmol/kg: Yes
Serum iron; 1000 nmol/kg
  In Vivo Activity (s.c.) 1000 nmol/kg: Yes

## Isovaleric acid-DTHFPCIIFGPRSKGCK-NH2 [Compound 115]
Serum iron; 1000 nmol/kg
  In Vivo Activity (s.c.) 1000 nmol/kg: No

## Isovaleric acid-DTHFPCIIFGPRSRGWVCK-NH2 [Compound 3]
Serum iron; 300 nmol/kg, i.p.
  In Vivo Activity 300 nmol/kg (i.p.): No (i.p.)
Serum iron; 1000 nmol/kg, i.p.
  In Vivo Activity 1000 nmol/kg (i.p.): No (i.p.)

## Isovaleric acid-DTHFPCIKF-K(PEG8)-PRSKGWVCK-NH2 [Compound 150]
Serum iron; 300 nmol/kg
  In Vivo Activity (s.c.) 300 nmol/kg: Yes

## Isovaleric acid-DTHFPCIKF-NH2 [Compound 291]
Human ferroportin
  % Activity At 1 uM: 100%

## Isovaleric acid-DTHFPCIKFEPRSKGCK-NH2 [Compound 184]
Serum iron; 300 nmol/kg
  In Vivo Activity (s.c.) 300 nmol/kg: Yes
Serum iron; 1000 nmol/kg
  In Vivo Activity (s.c.) 1000 nmol/kg: Yes

## Isovaleric acid-DTHFPCIKFGPRSKGWVCK-NH2 [Compound 9]
Serum iron; 300 nmol/kg
  In Vivo Activity (s.c.) 300 nmol/kg: Yes
Serum iron; 1000 nmol/kg
  In Vivo Activity (s.c.) 1000 nmol/kg: Yes

## Isovaleric acid-DTHFPCIQFGPRSKGWVCK-NH2 [Compound 10]
Serum iron; 1000 nmol/kg
  In Vivo Activity (s.c.) 1000 nmol/kg: Minor

## Isovaleric acid-DTHFPICIFGPRS-K(PEG8)-GWVC-NH2 [Compound 176]
Serum iron; 300 nmol/kg
  In Vivo Activity (s.c.) 300 nmol/kg: Yes

## Isovaleric acid-DTHFPSIIF-NH2 [Compound 290]
Human ferroportin; Hepcidin analog peptides
  Potency EC50 (nM): Inactive

## Isovaleric acid-HFPCIIFGPRSKGWVCK-NH2 [Compound 100]
Human ferroportin; Hepcidin analog peptides
  Potency EC50 (nM): Inactive

## Isovaleric acid-THFPCIIFGPRSKGWVCK-NH2 [Compound 98]
Human ferroportin; Hepcidin analog peptides
  Potency EC50 (nM): Inactive

## Palmitoyl-DTHFPCIKFGPRSKGWVCK-NH2 (cysteine pairing not given here) [Compound 216]
Human ferroportin; [1]
  pEC50: < 6.00
